# Active and inactive are the calls of the source. The calls are words filed in the database; no cut-off is given here.
# Assays:
# Human adenovirus 5 [1] = experiment: Antiviral activity against GFP-fused Human adenovirus 5 infected in 293beta5 cells assessed as inhibition of plaque formation incubated for 7 days by GFP reporter gene assay; assay type: functional, organism-based; settings: Human mastadenovirus C, HEK293, 168 h
# Human adenovirus 5 [2] = experiment: Antiviral activity against Human adenovirus 5 infected in 293beta5 cells assessed as inhibition of virus infection at 10 fold IC50 measured after 60 mins by GFP reporter gene assay relative to control; assay type: functional, HEK293; settings: 1 h
# Human adenovirus 5 [3] = experiment: Antiviral activity against wild-type Human adenovirus 5 infected in human A549 cells assessed as inhibition of virus entry incubated for 48 hrs by fluorescence assay; assay type: functional, organism-based; settings: Human mastadenovirus C, A549, 48 h
# Human betaherpesvirus 5 [4] = experiment: Antiviral activity against human cytomegalovirus infected in HFF cells assessed as inhibition of viral replication by measuring number of viral DNA copies at […] incubated for 72 hrs by RT-PCR analysis (reference value: 100 +/- 25.56 %); assay type: functional; parameters: scale not given: the % may be the effect or the level left; settings: dose 11.1 µM
# Human adenovirus 5 [5] = experiment: Antiviral activity against wild-type Human adenovirus 5 infected in human A549 cells assessed as inhibition of viral DNA replication by measuring number of viral DNA copies at […] after 24 hrs by RT-qPCR analysis (reference value: 100 +/- 0.16 %); assay type: functional; parameters: scale not given: the % may be the effect or the level left; settings: dose 11.1 µM
# [6] = Cytotoxicity against human A549 cells assessed as reduction in cell viability incubated for 48 hrs by alamarBlue assay; assay type: cell-based
# [7] = Selectivity index, ratio of CC50 for cytotoxicity against human A549 cells assessed as reduction in cell viability incubated for 48 hrs by alamarBlue assay to IC50 for antiviral activity against Human adenovirus 5 infected in 293beta5 cells assessed as inhibition of plaque formation incubated for 7 days by GFP reporter gene assay; assay type: toxicity, cell-based; settings: read-out: Ratio CC50/IC50
# Human adenovirus 5 [8] = experiment: Antiviral activity against WT-Human adenovirus 5 infected in A549 cells assessed as fold reduction in virus yield at 10 fold of IC50 after 48 hrs endpoint dilution method; assay type: functional
# Human adenovirus 5 [9] = experiment: Antiviral activity against wild-type Human adenovirus 5 infected in human A549 cells assessed as inhibition of viral entry by measuring nuclear associated viral genome level at 10 fold IC50 incubated for 45 mins by RT-PCR analysis (reference value: 100 +/- 1.07 %); assay type: functional; parameters: scale not given: the % may be the effect or the level left; settings: 0.75 h
# Human betaherpesvirus 5 [10] = experiment: Antiviral activity against human cytomegalovirus infected in HFF cells assessed as inhibition of viral replication by measuring number of viral DNA copies at 2.7 uM incubated for 72 hrs by RT-PCR analysis (reference value: 100 +/- 25.56 %); assay type: functional; parameters: scale not given: the % may be the effect or the level left
# Human adenovirus 5 [11] = experiment: Antiviral activity against Human adenovirus 5 infected in 293beta5 cells assessed as inhibition of virus infection at 10 fold IC50 measured after 5 mins by GFP reporter gene assay relative to control; assay type: functional, HEK293
# Human adenovirus 5 [12] = experiment: Antiviral activity against Human adenovirus 5 infected in 293beta5 cells assessed as inhibition of plaque formation at 10 uM incubated for 7 days by GFP reporter gene assay relative to control; assay type: functional; settings: Human mastadenovirus C, HEK293, 168 h, time 7 day
# Human adenovirus 5 [13] = experiment: Antiviral activity against wild-type Human adenovirus 5 infected in human A549 cells assessed as inhibition of viral DNA replication by measuring number of viral DNA copies at 2.7 uM after 24 hrs by RT-qPCR analysis (reference value: 100 +/- 0.16 %); assay type: functional; parameters: scale not given: the % may be the effect or the level left
# Human betaherpesvirus 5 [14] = experiment: Antiviral activity against human cytomegalovirus infected in HFF cells assessed as inhibition of viral replication by measuring number of viral DNA copies at 7.8 uM incubated for 72 hrs by RT-PCR analysis (reference value: 100 +/- 25.56 %); assay type: functional; parameters: scale not given: the % may be the effect or the level left
# Human adenovirus 5 [15] = experiment: Antiviral activity against Human adenovirus 5 infected in 293beta5 cells assessed as inhibition of virus infection at 10 fold of IC50 measured at 0 min by GFP reporter gene assay relative to control; assay type: functional, HEK293
# Human adenovirus 5 [16] = experiment: Antiviral activity against wild-type Human adenovirus 5 infected in human A549 cells assessed as inhibition of viral DNA replication by measuring number of viral DNA copies at 7.8 uM after 24 hrs by RT-qPCR analysis (reference value: 100 +/- 0.16 %); assay type: functional; parameters: scale not given: the % may be the effect or the level left
# Human adenovirus 5 [17] = experiment: Antiviral activity against wild-type Human adenovirus 5 infected in human A549 cells assessed as inhibition of viral DNA replication by measuring number of viral DNA copies at 12.7 uM after 24 hrs by RT-qPCR analysis (reference value: 100 +/- 0.16 %); assay type: functional; parameters: scale not given: the % may be the effect or the level left
# Human betaherpesvirus 5 [18] = experiment: Antiviral activity against human cytomegalovirus infected in HFF cells assessed as inhibition of viral replication by measuring number of viral DNA copies at 12.7 uM incubated for 72 hrs by RT-PCR analysis (reference value: 100 +/- 25.56 %); assay type: functional; parameters: scale not given: the % may be the effect or the level left
# Human adenovirus 5 [19] = experiment: Antiviral activity against wild-type Human adenovirus 5 infected in human A549 cells assessed as inhibition of viral DNA replication by measuring number of viral DNA copies at 9 uM after 24 hrs by RT-qPCR analysis (reference value: 100 +/- 0.16 %); assay type: functional; parameters: scale not given: the % may be the effect or the level left
# Human betaherpesvirus 5 [20] = experiment: Antiviral activity against human cytomegalovirus infected in HFF cells assessed as inhibition of viral replication by measuring number of viral DNA copies at 9 uM incubated for 72 hrs by RT-PCR analysis (reference value: 100 +/- 25.56 %); assay type: functional; parameters: scale not given: the % may be the effect or the level left
# Human adenovirus 5 [21] = experiment: Antiviral activity against Human adenovirus 5 infected in 293beta5 cells assessed as inhibition of virus infection at 10 times IC50 measured after 10 to 20 mins by GFP reporter gene assay relative to control; assay type: functional, organism-based; settings: HEK293, time min 10-20
# Cytomegalovirus = experiment: Antiviral activity against human cytomegalovirus infected in HFF cells assessed as decrease in number of viral DNA copies at 9.3 uM incubated for 72 hrs by RT-PCR analysis (reference value: 100 +/- 25.56 %); assay type: functional; parameters: scale not given: the % may be the effect or the level left
# Human adenovirus 5 [22] = experiment: Antiviral activity against wild-type Human adenovirus 5 infected in human A549 cells assessed as inhibition of viral DNA replication by measuring number of viral DNA copies at 9.3 uM after 24 hrs by RT-qPCR analysis (reference value: 100 +/- 0.16 %); assay type: functional; parameters: scale not given: the % may be the effect or the level left
# Human adenovirus 5 [23] = experiment: Antiviral activity against wild-type Human adenovirus 5 infected in human A549 cells assessed as inhibition of viral DNA replication by measuring number of viral DNA copies at 12 uM after 24 hrs by RT-qPCR analysis (reference value: 100 +/- 0.16 %); assay type: functional; parameters: scale not given: the % may be the effect or the level left
# Human betaherpesvirus 5 [24] = experiment: Antiviral activity against human cytomegalovirus infected in HFF cells assessed as inhibition of viral replication by measuring number of viral DNA copies at 12 uM incubated for 72 hrs by RT-PCR analysis (reference value: 100 +/- 25.56 %); assay type: functional; parameters: scale not given: the % may be the effect or the level left
SMILES,IC50 (Human adenovirus 5 [1]),IC50 (Human adenovirus 5 [3]),CC50 at 48 h [6],selectivity ratio at 48 h [7],fold change (FC) (Human adenovirus 5 [8]),Activity (Human adenovirus 5 [9]),inhibition at 10 µM (Human adenovirus 5 [12]),inhibition (INH) (Human adenovirus 5 [15]),also measured
CC1(Nc2ccc(NC(=O)c3cc(Cl)ccc3O)c(Cl)c2)CCCC1,0.27 µM,15.2 µM,157 µM,581,52.6,53.7%,100%,–,Activity (Human betaherpesvirus 5 [10]): 91.25%; inhibition (INH) (Human adenovirus 5 [11]): <50%; Activity (Human adenovirus 5 [13]): 20.21%
CC(C)(Cc1ccccc1)ON(c1ccc(NC(=O)c2cc(Cl)ccc2O)c(Cl)c1)C(C)(C)Cc1ccccc1,1.27 µM,34.1 µM,165 µM,130,21.5,95.87%,100%,–,Activity (Human adenovirus 5 [17]): 2.37%; inhibition (INH) (Human adenovirus 5 [11]): <50%; Activity (Human betaherpesvirus 5 [18]): 9.15%
CC(C)(C)OC(=O)N1CCC(CNc2ccc(NC(=O)c3cc(Cl)ccc3O)c(Cl)c2)CC1,0.93 µM,< 3.13 µM,92 µM,102,232,59.54%,–,–,inhibition (Human adenovirus 5 [21]): inactive; Activity (Cytomegalovirus): 15.58%; Activity (Human adenovirus 5 [22]): 2.49%

# Now from value to molecule, other results behind:
IC50 (Human adenovirus 5 [1]),IC50 (Human adenovirus 5 [3]),SMILES,CC50 at 48 h [6],selectivity ratio at 48 h [7],fold change (FC) (Human adenovirus 5 [8]),Activity (Human adenovirus 5 [9]),inhibition at 10 µM (Human adenovirus 5 [12]),inhibition (INH) (Human adenovirus 5 [15]),also measured
1.11 µM,25 µM,O=C(Nc1ccc(NCc2ccc(O)cc2)cc1Cl)c1cc(Cl)ccc1O,116 µM,104,17.4,11.56%,–,–,inhibition (INH) (Human adenovirus 5 [2]): >=50%; Activity (Human betaherpesvirus 5 [4]): 15.71%; Activity (Human adenovirus 5 [5]): 83.72%
0.78 µM,> 50 µM,O=C(Nc1ccc(NCc2ccc(O)nc2)cc1Cl)c1cc(Cl)ccc1O,98.5 µM,126,26.6,13.6%,100%,<50%,Activity (Human betaherpesvirus 5 [14]): 18.18%; Activity (Human adenovirus 5 [16]): 53.62%
0.9 µM,–,CC(C)(CCO)Nc1ccc(NC(=O)c2cc(Cl)ccc2O)c(Cl)c1,170 µM,188,15.7,99.97%,–,<50%,Activity (Human adenovirus 5 [19]): 65.04%; Activity (Human betaherpesvirus 5 [20]): 14.35%
1.2 µM,30.8 µM,CC(CCO)Nc1ccc(NC(=O)c2cc(Cl)ccc2O)c(Cl)c1 (stereo not given),200 µM,167,9.3,98.96%,–,<50%,Activity (Human adenovirus 5 [23]): 80.94%; Activity (Human betaherpesvirus 5 [24]): 22.47%
